For one test, the system named is PKD2L1-expressing TRCs. Nature of the test: Tastant-induced chorda tympani nerve recordings, mice with DTA ablation of PKD2L1-expressing cells. Type of test: in vivo, mouse. The note with it: PKD2L1-DTA mice (PKD2L1-expressing cells genetically ablated); range of 5 orders magnitude of proton concentrations. An excerpt:
(§1) To validate this approach as a means of uncovering TRC function, we first generated mice where T1R2-regulatory sequences were used to target DTA expression^25. T1R2 is an essential subunit of the sweet receptor heterodimer (T1R2+3), and the selective ablation of these cells should generate animals with a specific loss of sweet taste^6,9,10,17. To investigate the taste responses of the genetically modified mice, we recorded tastant-induced action potentials from nerves innervating taste receptor cells of the tongue; this physiological assay monitors the activity of the taste system at the periphery, and provides an accurate and reliable measure of taste receptor cell function. […] Next, we engineered animals where the PKD2L1 gene was used to target Cre recombinase into PKD2L1-expressing cells; appropriate expression was confirmed by performing double labeling with Cre and probes specific to PKD2L1-cells, or by crossing them to GFP reporter lines^26. Mice expressing Cre in PKD2L1 cells were crossed to conditional DTA lines, and double-positive progeny were scrutinized both for the specificity and efficiency of killing, as well as the integrity of taste buds.
(§2) Lingual stimulation and recording procedures were performed as previously described^7,9. Neural signals were amplified (10,000×) with a Grass P511 AC amplifier (Astro-Med), digitized with a Digidata 1200B A/D converter (Axon Instruments), and integrated (r.m.s. voltage) with a time constant of 0.5 s. Taste stimuli were presented at a constant flow rate of 4 ml min^−1 for 20 s intervals interspersed by 2 min rinses with artificial saliva^7,9 between presentations. All data analyses used the integrated response over a 25 s period immediately after the application of the stimulus. The mean response to 60 mM AceK was used to normalize responses to each experimental series. Tastants used for nerve recordings were: 10 mM, 60 mM acesulfameK (AceK); 10 mM, 60 mM sodium saccharin (saccharin); 300 mM sucrose; 30 mM mono potassium glutamate+1 mM inosine mono phosphate (Glu); 30 mM L alanine+1 mM inosine mono phosphate (Ala); 10 mM quinine hydrochloride (Qui); 100 μM cycloheximide (Cyx); 10 mM 6-n-propyl 2-thiouracil (PROP); 50 mM, 100 mM sodium chloride (NaCl); 10 mM, 50 mM citric acid; 10 mM, 50 mM tartaric acid; 50 mM, 500 mM acetic acid; pH 2 hydrochloric acid (HCl); 10 mM citric acid pH 2, 4 and 6.
`CC(=O)O` [acetic acid]: the “nerve responses to acid tastants” value is listed as “completely abolished”.

As for `O=C(O)CC(O)(CC(=O)O)C(=O)O` [citric acid], the “nerve responses to acid tastants” value is “completely abolished”.

For `Cl` [hydrochloric acid], the “nerve responses to acid tastants” value is given as “completely abolished”.

`O=C(O)C(O)C(O)C(=O)O` (stereo not drawn) [tartaric acid]: the “nerve responses to acid tastants” value is “completely abolished”.

The test system of a further test is taste receptor cells of the tongue. Nature of the test: Tastant-induced chorda tympani nerve recordings, wild-type mice. Type of test: in vivo, mouse. The settings on record: wild-type mice (WT); lingual stimulation; normalized to the response to 60 mM AceK.
Text: as §1, §2
Shown are integrated chorda tympani responses normalized to the response to 60 mM AceK; see herein for details on the ablated lines and concentrations of tastants. […] Wild type, black bars; PKD2L1-DTA, outline bars. The values are means±s.e.m. (n=5) of normalized chorda tympani responses. (c) Quantitation of acid responses of wild type (gray bars) and PKD2L1-DTA animals (outline bars). The values are means±s.e.m. (n=6).
Consider `[Cl-].[Na+]` [NaCl, sodium chloride], for which the “neural responses to tastant (integrated chorda tympani responses)” value (“neural responses to tastant” below) is reported as “robust neural responses”.

As for `CC1=CC(=O)NS(=O)(=O)O1` [acesulfameK], the “neural responses to tastant” value is recorded as “robust neural responses”.

`CC(=O)O` [acetic acid]: the “neural responses to tastant” value is given as “robust neural responses”.

With `O=C(O)CC(O)(CC(=O)O)C(=O)O` [citric acid], the “neural responses to tastant” value is “robust neural responses”.

`N[C@@H](CCC(=O)O)C(=O)[O-].[K+]` [glutamate, mono potassium glutamate]: the “neural responses to tastant” value is listed as “robust neural responses”.

With `Cl` [hydrochloric acid], the “neural responses to tastant” value is recorded as “robust neural responses”.

Consider `C=C[C@H]1CN2CC[C@H]1C[C@H]2[C@H](O)c1ccnc2ccc(OC)cc12.Cl` [quinine, quinine hydrochloride], for which the “neural responses to tastant” value is “robust neural responses”.

With `O=C1NS(=O)(=O)c2ccccc21.[Na]` [saccharin, sodium saccharin], the “neural responses to tastant” value is recorded as “robust neural responses”.

Values taken from patent publication US7601883B2, “Mammalian sour/acid taste and CSF receptor genes, polypeptides and assays” (The Regents of the University of California, priority 2005, dated 2009).
